SMILES strings stand for the structures. Like-named read-outs stand apart in the source and are kept apart here.

For the experiment, the system named is Phytophthora infestans. It is filed as in vivo. The settings on record: individual active compound, tomato leaves, protective, evaluated after 6 days.

Turning to `Cc1ccc(C(C)NC(=O)[C@@H](NC(=O)OC(C)C)C(C)C)cc1` (stereo partly drawn) [II-3, iprovalicarb], the “Efficacy in % of the untreated control” value (0.05 ppm in the spray liquor) is given as 29%, the “Efficacy in % of the untreated control” value (0.1 ppm in the spray liquor) was 53% and the “Efficacy in % of the untreated control” value (0.2 ppm in the spray liquor) was 70%.
The like results for `Cc1ccc(-c2c(Cl)nc(C#N)n2S(=O)(=O)N(C)C)cc1` [Ia, cyazofamid] were, in that order, 53%, 70% and 82%.

Source of the values: patent US7449195B2 (priority 2001, dated 2008).
